Experiments:
[1] = test system: CHO-S cell line expressing rIX-FP; assay: Flask productivity assay (Experiment 1): FIX activity, FIX antigen; format: cell-based, Chinese hamster; settings: for Ratio (activity/antigen) / Activity (Factor IX activity) / Antigen (Factor IX antigen): double addition; for Activity (Factor IX activity) / Antigen (Factor IX antigen): 50 ng/ml, mean of duplicate flasks
Experimental: (§1) Cell counts were performed utilising the Innovartis Cedex automated cell counter in accordance with the manufacturers instructions. Glucose, lactate, ammonia and glutamine assays were performed utilising the Yellow Springs Instruments (YSI) 7100 analyser in accordance with the manufacturers instructions. Off-line determination of dissolved carbon dioxide concentrations were performed using the RapidLab 248 Blood Gas Analyser from Siemens (formerly Bayer) in accordance with the manufacturer's instructions. Antigen assay was performed using an internal procedure ELISA for Quantitation of Factor IX Antigen. The Factor IX Activity assay was performed using the “BIOPHEN FIX” chromogenic FIX test. Sampling was performed daily from the point of inoculation for all assays.
The Flask productivity assay was performed as described below.
A CHO-S cell line expressing rIX-FP was used and cultured in an alternative commercially obtainable serum-free chemically defined medium specifically designed for the production of recombinant proteins in CHO cells (“Medium B”) with 8 mM L-glutamine. In the N−1 and N (with N being the last passage number) passage 50 ng/ml MSB was added. Another addition was performed at 48 hours post inoculation. Cultures were inoculated at 2×10^5 viable cells/mL at a 30 mL volume in a 125 mL shake flask, cultured at 37 C, 5% CO2, 125 rpm in a humidified incubator (Multitron, Infors HT). Samples were assayed for cell density, cell viability, rIX-FP activity and antigen content.
Experiment 1 was performed to assess the effect of reduced MSB on culture performance compared to additions of MSB in a flask format. The cells were subjected to the standard flask productivity assay with assays for cell density, Factor IX antigen and Factor IX activity performed.

rIX-FP CHO-K1 clone = assay: Reactor fed-batch culture (Experiment 2): rIX-FP activity, antigen, cell growth; format: cell-based, Chinese hamster; settings: for Activity (total active produced) / Antigen (total antigen produced) / viable cell densities / growth profile / Ratio (active molecule to antigen): fed-batch; for Activity (total active produced) / Antigen (total antigen produced): Medium A, approx. 4 L; for Activity (total active produced) / Antigen (total antigen produced) / Ratio (active molecule to antigen): up to 192 hour post inoculation; for viable cell densities / growth profile: reduced versus non-reduced MSB
Experimental: The medium used for the propagation was a commercially obtainable serum-free chemically defined medium specifically designed for the production of recombinant proteins in CHO cells: “Medium A”. The clones utilised the Lonza glutamine synthetase (GS) system and were passaged in the absence of glutamine with selection maintained by 25 uM methionine sulfoximine (MSX). In the last culture stage, used for productivity measurement, both glutamine and MSX were not added to the medium.
Vitamin K is essential to the cell for the production of active recombinant Factor IX, due to the Vitamin K-dependent gamma-carboxylation of the molecule. In experiments describing the present invention Vitamin K3 in the form of Menadione sodium bi-sulphate (MSB, Sigma) was chosen as the source of Vitamin K as this form is water soluble and thus readily accessible to the cell. Addition of MSB occurred daily at a concentration of 50 ng/ml.
Due to the inherent unstable nature of the reduced MSB, quantification of exact concentrations of the reduced MSB was not available at the time of experimentation. Therefore all stated concentrations of reduced MSB are calculated values derived from the starting concentration of MSB at the commencement of the reduction process. It is anticipated that the actual reduced MSB concentration is less than the calculated amount due to some small losses occurring through the reduction process.
The reactors were Sartorius/Braun 5 L dished bottom glass reactors, with a single Rushton Impeller for agitation and a ring sparger. All reactor cultures were performed under the following conditions unless otherwise stated.
as §1
Under reactor fed-batch conditions a rIX-FP CHO-K1 clone was cultivated under the standard conditions. This experiment assessed the cell growth, antigen production and active rIX-FP production from the cell under either MSB addition or reduced MSB addition. The feed utilised in this experiment was glucose based (100 g/l) supplemented with the following amino acids: • ? Asparagine at 21.4 g/L; • ? Cysteine at 5.6 g/L; • ? Aspartic acid at 5 g/L.
The reactor test conditions were Reactor A4 utilising a non-reduced MSB addition and Reactor B4 utilising a reduced MSB addition. In both reactors Medium A was used as described in Example 4.

CHO-K1 clone A5 (rIX-FP) = assay: Extended draw-fill reactor culture (Experiment 3): rIX-FP activity, antigen, cell growth; format: cell-based, Chinese hamster; settings: for Ratio / Activity / Antigen: extended draw-fill; for Activity / Antigen: approx. 7 L
Experimental: as §1
The CHO-K1 clone A5 was cultivated under extended draw-fill conditions with two media, Media A and yet another commercially obtainable serum-free chemically defined medium specifically designed for the production of recombinant proteins in CHO cells: Media C. While comparing the performance of the media, the effect of the addition of MSB or reduced MSB was assessed (Table 5). As with previous experiments the outputs from this investigation were growth parameters of the cell and the production of active rIX-FP molecule and rFIX-FP antigen.

[2] = test system: CHO-S cells expressing albumin fused Factor VII; assay: Specific activity of albumin-fused Factor VII expressed in bioreactor culture (Experiment 6); format: cell-based, Chinese hamster; settings: albumin-fused FVII; 50 ng/ml increased daily to 250 ng/ml; MSB n = 4, rMSB n = 25
Experimental: An albumin fused Factor VII was cloned and expressed in CHO-S cells as described in Thromb. Haemost. 2008 April; 99(4):659-67.
Cultivation of mammalian cells occurred under either batch or fed-batch conditions at a starting volume of 3 liters in a 5 liter bioreactor system. Controlled parameters were temperature (37° C.), pH (7.2), agitation (250 rpm) and dissolved oxygen. The medium used was a commercially available, chemically defined media (CD-CHO, Invitrogen) which was supplemented with MSB or rMSP in a starting concentration of 50 ng/ml. Each day the concentration was increased by 50 ng/ml until on day 5 a maximum concentration of 250 ng/ml was reached, which was then held for the remainder of the cultivation period.
The activity of FVII was determined using a chromogenic assay (COASET® FVII test kit (Chromogenix, 82190063)). The amount of protein was determined via reverse phase HPLC.

[3] = test system: CHO-S cell line expressing rIX-FP; assay: Flask productivity assay (Experiment 1): FIX activity, FIX antigen; format: cell-based, Chinese hamster; settings: single addition; for Activity (Factor IX activity) / Antigen (Factor IX antigen): 50 ng/ml, mean of duplicate flasks
[4] = test system: Chinese hamster ovary (CHO) cells secreting Factor IX; settings: cited from earlier work
gamma carboxylation = settings: cell free system; cited from earlier work

Compound | Ratio (activity/antigen) ([1]; 72 hours) | Activity (Factor IX activity) ([1]; 72 hours) | Antigen (Factor IX antigen) ([1]; 72 hours) | Ratio (activity/antigen) ([1]; 96 hours) | Activity (Factor IX activity) ([1]; 96 hours) | Antigen (Factor IX antigen) ([1]; 96 hours) | amount of active rIX-FP (rIX-FP CHO-K1 clone; fed-batch conditions) | Activity (total active produced) (rIX-FP CHO-K1 clone) | Antigen (total antigen produced) (rIX-FP CHO-K1 clone) | viable cell densities / growth profile (rIX-FP CHO-K1 clone) | Ratio (active molecule to antigen) (rIX-FP CHO-K1 clone) | Ratio (CHO-K1 clone A5 (rIX-FP); Medium A) | Activity (CHO-K1 clone A5 (rIX-FP); Medium A, 50 ng/ml per day) | Antigen (CHO-K1 clone A5 (rIX-FP); Medium A, 50 ng/ml per day) | Ratio (CHO-K1 clone A5 (rIX-FP); Medium C) | Activity (CHO-K1 clone A5 (rIX-FP); Medium C, 50 ng/ml per day) | Antigen (CHO-K1 clone A5 (rIX-FP); Medium C, 50 ng/ml per day) | Specific Activity, Mean [2] | Ratio (activity/antigen) ([3]; 72 hours) | Activity (Factor IX activity) ([3]; 72 hours) | further results
CC1(S(=O)(=O)[O-])CC(=O)c2ccccc2C1=O.[Na+] (stereo not shown) [MSB, Menadione sodium bisulphite, reference compound] | 0.96 | 431.5 | 451.5 | 0.56 | 649 | 1155.5 | 22357 IU | 22357 U | 49479 U | very similar growth profiles and maximum cell densities | 0.45 | 0.49 | 28864 U | 58987 U | 0.52 | 23570 U | 45443 U | 313.5 IU/mg | 0.57 | 357.5 | activity values as percent of the reduced MSB addition values (CHO-K1 clone A5 (rIX-FP); draw-fill, both media types): 94-98%; Antigen (Factor IX antigen) ([3]; 72 hours): 625.5; Ratio (activity/antigen) ([3]; 96 hours): 0.24; Activity (Factor IX activity) ([3]; 96 hours): 629.5; Antigen (Factor IX antigen) ([3]; 96 hours): 2573
vitamin K | – | – | – | – | – | – | – | – | – | – | – | – | – | – | – | – | – | – | – | – | concentration in cell culture medium at which requirement to elicit active Factor IX reaches saturation [4]: 5 µg/mL
Reduced Menadione Sodium Bisulphite [rMSB] | 0.93 | 477 | 514.5 | 0.71 | 902 | 1271 | 35444 IU | 35444 U | 38197 U | very similar growth profiles and maximum cell densities | 0.93 | 0.66 | 30580 U | 46254 U | 0.62 | 24052 U | 38528 U | 392.6 IU/mg | 0.97 | 500 | activity compared with non-reduced MSB additions ([1]; 72 hr): slightly higher than non-reduced MSB additions; activity compared with MSB addition ([1]; 96 hr): greater activity results than that obtained for the MSB addition; antigenic yield (rIX-FP CHO-K1 clone; fed-batch conditions): 38197 IU; antigenic yield as percent of the MSB value (rIX-FP CHO-K1 clone; fed-batch conditions): 77%; increase in active rIX-FP relative to MSB addition (rIX-FP CHO-K1 clone; fed-batch conditions): 59%; cell growth, reduced versus non-reduced MSB (CHO-K1 clone A5 (rIX-FP); draw-fill, 50 ng/ml per day): very little difference in relation to cell growth; antigenic material compared to MSB additions (CHO-K1 clone A5 (rIX-FP); draw-fill, Medium A): 78%; antigenic material compared to MSB additions (CHO-K1 clone A5 (rIX-FP); draw-fill, Medium C): 84%; increase in ratio compared to MSB additions (CHO-K1 clone A5 (rIX-FP); draw-fill, depending on media type): 19-35%; Antigen (Factor IX antigen) ([3]; 72 hours): 516; Ratio (activity/antigen) ([3]; 96 hours): 0.86; Activity (Factor IX activity) ([3]; 96 hours): 1070.5; Antigen (Factor IX antigen) ([3]; 96 hours): 1249
CC1=CC(=O)c2ccccc2C1=O [menadione, 2-methyl-1,4-naphthoquinone] | – | – | – | – | – | – | – | – | – | – | – | – | – | – | – | – | – | – | – | – | promotion of gamma carboxylation (gamma carboxylation): inactive in promoting gamma carboxylation
Cc1cc(O)c2ccccc2c1O [reduced menadione] | – | – | – | – | – | – | – | – | – | – | – | – | – | – | – | – | – | – | – | – | promotion of gamma carboxylation (gamma carboxylation): inactive in promoting gamma carboxylation
